Measured values taken from ChEMBL document CHEMBL1127155, “Synthesis and antiviral activity of 9-(phosphonoalkylnyloxy)purines: Novel acyclonucleotides” (Bioorg Med Chem Lett, 1993).
≈ marks a conversion by molar mass, not a printed value.

How the values were obtained:
Human alphaherpesvirus 1 [1] = assay: Tested for its effect on replication of herpes simplex type-1 (HSV-1) at the dose up to 100 ug/mL; NE: No effect on replication; format: functional, organism-based
Cytomegalovirus [2] = assay: Tested for its effect on replication of cytomegalovirus (CMV) at the dose up to 100 ug/mL; NE: No effect on replication.; format: functional, organism-based
Human alphaherpesvirus 2 [3] = assay: Tested for the concentration at which compound showed activity against replication of herpes simplex type-2 (HSV-2); format: functional, organism-based
MRC5 = assay: Tested for inhibition of DNA synthesis in MRC-5 cells; format: functional, cell-based; settings: Homo sapiens
Cytomegalovirus [4] = assay: Tested for its effect on replication of cytomegalovirus (CMV) at the dose up to 100 ug/mL; NE: No effect on replication; format: functional, organism-based
Human alphaherpesvirus 1 [5] = assay: Tested for concentration at which cytotoxicity was observed in herpes simplex type-1 (HSV-1); format: functional
Human alphaherpesvirus 3 = assay: Tested for the concentration at which compound showed activity against its effect on replication of varicella zoster virus; format: functional, organism-based
Human alphaherpesvirus 1 [6] = assay: Tested for the concentration at which compound showed activity against its effect on replication of herpes simplex type-1 (HSV-1); format: functional, organism-based
Cytomegalovirus [7] = assay: Tested for the concentration at which compound showed activity against its effect on replication of Cytomegalovirus; format: functional, organism-based; settings: Human betaherpesvirus 5
Human alphaherpesvirus 2 [8] = assay: Tested for the concentration at which compound showed activity against its effect on replication of herpes simplex type-2 (HSV-2); format: functional, organism-based

Structure (SMILES)	Activity (Human alphaherpesvirus 1 [1])	Activity (Cytomegalovirus [2])	IC50 (Human alphaherpesvirus 2 [3])	IC50 (MRC5)	Activity (Cytomegalovirus [4])	Dose (Human alphaherpesvirus 1 [5])	IC50 (Human alphaherpesvirus 3)	IC50 (Human alphaherpesvirus 1 [6])	IC50 (Cytomegalovirus [7])	IC50 (Human alphaherpesvirus 2 [8])
Nc1ncnc2c1ncn2OCC#CP(=O)(O)O	No effect	No effect	14 µg/mL (≈ 52 µM)	98 µg/mL (≈ 364 µM)						
Nc1nc(O)c2ncn(OCC/C(=C/Cl)P(=O)(O)O)c2n1	No effect		25 µg/mL (≈ 74.5 µM)	17 µg/mL (≈ 50.6 µM)	No effect					
Nc1nc(O)c2ncn(OCC#CP(=O)(O)O)c2n1				4.2 µg/mL (≈ 14.7 µM)		30 µg/mL	3.2 µg/mL (≈ 11.2 µM)	6.5 µg/mL (≈ 22.8 µM)	3.8 µg/mL (≈ 13.3 µM)	3.9 µg/mL (≈ 13.7 µM)
